What all share (experiment): agar serial dilution test (MIC)
Common to all, as to type: cell-based

The subject of one assay is K. edwardsii K1. The method, then:
(§1) The antibiotic activity in vitro of some compounds according to the invention and of some previously known compounds was tested by means of an agar serial dilution test. The following compounds were tested: 7β-[2-(2-Aminothiazol-4-yl)-2-diethylphosphoryloxyiminoacetamido] cephalosporanic acid (designated ES 643, 7β-[2-(2-amino- thiazol-4-yl)-2-dimethylphosphoryloxyiminoacetamido] cephalosporanic acid (designated ES 671), 7β-[2-(2-amino- thiazol-4-yl)-2-dimorpholinophosphoryloxyiminoacetamido] cephalosporanic acid (designated ES 656), 7β-[2-(2-amino- thiazol-4-yl)-2-methylmethylphosphonyloxyiminoacetamido] cephalosporanic acid (designated ES 682), 7β-[2-(2-amino- thiazol-4-yl)-2-hydroxyiminoacetamido] cephalosporanic acid (designated A), cefuroxime (designated B), and cephalotin (designated C). MIC designates minimum inhibitory concentration.

A further assay concerns E. coli 04. The method, then: as §1
The next assay relates to P. morganii 69. The method, then: as §1
The next assay relates to S. aureus 13709. The method, then: as §1
For a further assay, the system named is P. morganii 18. As for the experimental part:
as §1

A further assay concerns S. pyogenes 12384. The method, then:
as §1

A further assay concerns S. albus 3578. As for the experimental part:
as §1

In the next assay the test system is P. mirabilis 2255. The method, then: as §1
Another assay relates to P. mirabilis 682. As for the experimental part: as §1
The test system of a further assay is P. vulgaris 5209. The method, then:
as §1

Another assay concerns S. aureus 209P. As to conditions: Staphylococcus aureus. As for the experimental part: as §1
The test system of another assay is S. albus 12228. As for the experimental part: as §1
A further assay concerns E. coli 01. As for the experimental part: as §1
Another assay relates to K. pneumoniae K8. As to conditions: Klebsiella pneumoniae. As for the experimental part: as §1
For the next assay, the system named is S. aureus 3356. The method, then: as §1
The test system of a further assay is P. vulgaris 16868. As for the experimental part: as §1
For another assay, the system named is P. mirabilis 2311. The method, then:
as §1

For a further assay, the system named is S. aureus 3349. As for the experimental part:
as §1

Another assay has as its system P. vulgaris 17028. The method, then: as §1
The test system of a further assay is S. albus 3348. As for the experimental part:
as §1

For the next assay, the system named is S. pyogenes 12334. The method, then:
as §1

Setting [1] is: K. edwardsii K1, read-out: MIC value.
Setting [2] is: Escherichia coli, E. coli 04, read-out: MIC value.
The mark [3] stands for this setting: Morganella morganii, P. morganii 69, read-out: MIC value.
The mark [4] stands for this setting: Staphylococcus aureus, S. aureus 13709, read-out: MIC value.
Setting [5] is: Morganella morganii, P. morganii 18, read-out: MIC value.
Where [6] appears, read: Streptococcus pyogenes, S. pyogenes 12384, read-out: MIC value.
Where [7] appears, read: Staphylococcus albus, S. albus 3578, read-out: MIC value.
The mark [8] stands for this setting: Proteus mirabilis, P. mirabilis 2255, read-out: MIC value.
The mark [9] stands for this setting: Proteus mirabilis, P. mirabilis 682, read-out: MIC value.
Setting [10] is: Proteus vulgaris, P. vulgaris 5209, read-out: MIC value.
[11] abbreviates: S. aureus 209P, read-out: MIC value.
Setting [12] is: Staphylococcus albus, S. albus 12228, read-out: MIC value.
The mark [13] stands for this setting: Escherichia coli, E. coli 01, read-out: MIC value.
Where [14] appears, read: K. pneumoniae K8, read-out: MIC value.
[15] abbreviates: Staphylococcus aureus, S. aureus 3356*, penicillin-resistant strain, read-out: MIC value.
The mark [16] stands for this setting: Proteus vulgaris, P. vulgaris 16868, read-out: MIC value.
Setting [17] is: Proteus mirabilis, P. mirabilis 2311, read-out: MIC value.
Where [18] appears, read: Staphylococcus aureus, S. aureus 3349*, penicillin-resistant strain, read-out: MIC value.
The mark [19] stands for this setting: Proteus vulgaris, P. vulgaris 17028, read-out: MIC value.
Where [20] appears, read: Staphylococcus albus, S. albus 3348, read-out: MIC value.
Where [21] appears, read: Streptococcus pyogenes, S. pyogenes 12334, read-out: MIC value.

Molecules are shown by their SMILES. Converted amounts (≈) assume the structure as drawn. Where two headings read alike, the source gives them in different places.

Consider `CO/N=C(\C(=O)N[C@@H]1C(=O)N2C(C(=O)O)=C(COC(N)=O)CS[C@H]12)c1ccco1` [B, cefuroxime, reference compound], for which the MIC with K. edwardsii K1 (setting [1]) is 6.2 µg/mL (≈ 14.6 µM); in the assay with E. coli 04 (setting [2]) it was 6.2 µg/mL (≈ 14.6 µM); in the assay on P. morganii 69 (setting [3]), 25 µg/mL (≈ 58.9 µM); in the assay with S. aureus 13709 (setting [4]), 0.8 µg/mL (≈ 1.89 µM); with P. morganii 18 (setting [5]), 25 µg/mL (≈ 58.9 µM); with S. pyogenes 12384 (setting [6]) it was below 0.1 µg/mL. The MIC in the assay on S. albus 3578 (setting [7]) is 0.2 µg/mL (≈ 0.471 µM); in the assay with P. mirabilis 2255 (setting [8]), 1.6 µg/mL (≈ 3.77 µM); in the assay with P. mirabilis 682 (setting [9]), 3.1 µg/mL (≈ 7.3 µM); in the assay with P. vulgaris 5209 (setting [10]), above 100 µg/mL; in the assay on S. aureus 209P (setting [11]), 1.6 µg/mL (≈ 3.77 µM); with S. albus 12228 (setting [12]) it was 0.4 µg/mL (≈ 0.943 µM). The MIC is 3.1 µg/mL (≈ 7.3 µM) with E. coli 01 (setting [13]); 12.5 µg/mL (≈ 29.5 µM) in the assay on K. pneumoniae K8 (setting [14]); 0.8 µg/mL (≈ 1.89 µM) in the assay on S. aureus 3356 (setting [15]); above 100 µg/mL with P. vulgaris 16868 (setting [16]); 0.8 µg/mL (≈ 1.89 µM) in the assay on P. mirabilis 2311 (setting [17]); 0.8 µg/mL (≈ 1.89 µM) with S. aureus 3349 (setting [18]). Further, the results for the MIC in the assay with P. vulgaris 17028 (setting [19]), in the assay with S. albus 3348 (setting [20]) and in the assay on S. pyogenes 12334 (setting [21]) were above 100 µg/mL, 0.2 µg/mL (≈ 0.471 µM) and below 0.1 µg/mL, respectively.
Turning to `CC(=O)OCC1=C(C(=O)O)N2C(=O)C(NC(=O)C(=NOP(=O)(N3CCOCC3)N3CCOCC3)c3csc(N)n3)C2SC1` (stereo not drawn) [ES 656, 7β-[2-(2-amino-thiazol-4-yl)-2-dimorpholinophosphoryloxyiminoacetamido] cephalosporanic acid], the MIC in the assay with K. edwardsii K1 (setting [1]) is 1.6 µg/mL (≈ 2.43 µM); in the assay on E. coli 04 (setting [2]), 0.2 µg/mL (≈ 0.303 µM); in the assay on P. morganii 69 (setting [3]), 3.1 µg/mL (≈ 4.7 µM); in the assay on S. aureus 13709 (setting [4]) it was 0.2 µg/mL (≈ 0.303 µM); with P. morganii 18 (setting [5]), 1.6 µg/mL (≈ 2.43 µM); in the assay on S. pyogenes 12384 (setting [6]) it was below 0.1 µg/mL. Also, the MIC with S. albus 3578 (setting [7]) is 0.2 µg/mL (≈ 0.303 µM); with P. mirabilis 2255 (setting [8]) it was 0.2 µg/mL (≈ 0.303 µM); with P. mirabilis 682 (setting [9]) it was below 0.1 µg/mL; in the assay with P. vulgaris 5209 (setting [10]), 50 µg/mL (≈ 75.8 µM); in the assay with S. aureus 209P (setting [11]), 0.2 µg/mL (≈ 0.303 µM); in the assay on S. albus 12228 (setting [12]) it was 0.2 µg/mL (≈ 0.303 µM). The MIC in the assay with E. coli 01 (setting [13]) is below 0.1 µg/mL; in the assay on K. pneumoniae K8 (setting [14]) it was 0.4 µg/mL (≈ 0.606 µM); with S. aureus 3356 (setting [15]), 0.2 µg/mL (≈ 0.303 µM); with P. vulgaris 16868 (setting [16]), 12.5 µg/mL (≈ 18.9 µM); in the assay with P. mirabilis 2311 (setting [17]) it was 0.2 µg/mL (≈ 0.303 µM); in the assay with S. aureus 3349 (setting [18]), 0.4 µg/mL (≈ 0.606 µM). Also, the MIC in the assay with P. vulgaris 17028 (setting [19]) was 25 µg/mL (≈ 37.9 µM); with S. albus 3348 (setting [20]), 0.2 µg/mL (≈ 0.303 µM); in the assay with S. pyogenes 12334 (setting [21]) it was below 0.1 µg/mL.
Take `CC(=O)OCC1=C(C(=O)O)N2C(=O)[C@@H](NC(=O)Cc3cccs3)[C@H]2SC1` [C, cephalotin, reference compound]: the MIC was 0.2 µg/mL (≈ 0.504 µM) with K. edwardsii K1 (read-out: MIC value in μg/ml); 12.5 µg/mL (≈ 31.5 µM) in the assay on E. coli 04 (Escherichia coli, 04, read-out: MIC value in μg/ml); above 100 µg/mL with P. morganii 69 (Morganella morganii, 69, read-out: MIC value in μg/ml); 0.4 µg/mL (≈ 1.01 µM) in the assay with S. aureus 13709 (Staphylococcus aureus, 13709, read-out: MIC value in μg/ml); above 100 µg/mL in the assay on P. morganii 18 (Morganella morganii, 18, read-out: MIC value in μg/ml); below 0.1 µg/mL with S. pyogenes 12384 (Streptococcus pyogenes, 12384, read-out: MIC value in μg/ml). The MIC was below 0.1 µg/mL with S. albus 3578 (Staphylococcus albus, 3578, read-out: MIC value in μg/ml); 3.1 µg/mL (≈ 7.82 µM) in the assay with P. mirabilis 2255 (Proteus mirabilis, 2255, read-out: MIC value in μg/ml); 6.2 µg/mL (≈ 15.6 µM) with P. mirabilis 682 (Proteus mirabilis, 682, read-out: MIC value in μg/ml); above 100 µg/mL in the assay on P. vulgaris 5209 (Proteus vulgaris, 5209, read-out: MIC value in μg/ml); below 0.1 µg/mL in the assay on S. aureus 209P (209P, read-out: MIC value in μg/ml); 0.2 µg/mL (≈ 0.504 µM) in the assay with S. albus 12228 (Staphylococcus albus, 12228, read-out: MIC value in μg/ml). For the same compound, the MIC in the assay on E. coli 01 (Escherichia coli, 01, read-out: MIC value in μg/ml) is 6.2 µg/mL (≈ 15.6 µM); with K. pneumoniae K8 (K8, read-out: MIC value in μg/ml) it was 50 µg/mL (≈ 126 µM); in the assay with S. aureus 3356 (Staphylococcus aureus, 3356, read-out: MIC value in μg/ml) it was below 0.1 µg/mL; in the assay on P. vulgaris 16868 (Proteus vulgaris, 16868, read-out: MIC value in μg/ml), above 100 µg/mL; in the assay with P. mirabilis 2311 (Proteus mirabilis, 2311, read-out: MIC value in μg/ml), 12.5 µg/mL (≈ 31.5 µM); in the assay on S. aureus 3349 (Staphylococcus aureus, 3349, read-out: MIC value in μg/ml), 0.4 µg/mL (≈ 1.01 µM). The MIC in the assay with P. vulgaris 17028 (Proteus vulgaris, 17028, read-out: MIC value in μg/ml) is above 100 µg/mL; in the assay with S. albus 3348 (Staphylococcus albus, 3348, read-out: MIC value in μg/ml) it was below 0.1 µg/mL; in the assay on S. pyogenes 12334 (Streptococcus pyogenes, 12334, read-out: MIC value in μg/ml), below 0.1 µg/mL.

These data come from patent EP0018155A2, “Novel cephalosporin compounds, a process for the preparation thereof, pharmaceutical compositions containing the same and the use thereof as a therapeutic agent against a microorganism” (NOVO NORDISK A/S, priority 1979, dated 1980).
